Test results from publication PMC6887723, “Design and Synthesis of 4-(Heterocyclic Substituted Amino)-1H-Pyrazole-3-Carboxamide Derivatives and Their Potent Activity against Acute Myeloid Leukemia (AML)” (International Journal of Molecular Sciences, 2019).

Key:
Assay in all cases: Hot-Spot kinase profiling
Assay type in all cases: biochemical
BTK = molecular target: T1, BTK (Homo sapiens, UniProt Q06187); details: read-out: % Enzyme Activity (Relative to DMSO Controls) BTK
T1 construct: purchased Reaction Biology Corp. (HotSpot kinase assay)
Protocol: (§1) Activities of kinases were determined using Hot-SpotSM kinase assay which was performed by Reaction Biology Corp. (Malvern PA, USA) as described previously.

CDK9/cyclin K = molecular target: T2, CDK9/cyclin K (Homo sapiens, UniProt P50750)
T2 construct: purchased Reaction Biology Corp
Protocol: as §1

CDK6/cyclin D1 = molecular target: T3, CDK6/cyclin D1 (Homo sapiens, UniProt Q00534)
T3 construct: purchased Reaction Biology Corp
Protocol: as §1

JAK2 = molecular target: T4, JAK2 (Homo sapiens, UniProt O60674); details: read-out: % Enzyme Activity (Relative to DMSO Controls) JAK2
T4 construct: purchased Reaction Biology Corp
Protocol: as §1

CDK2/cyclin A = molecular target: T5, CDK2/cyclin A (Homo sapiens, UniProt P24941)
T5 construct: purchased Reaction Biology Corp
Protocol: as §1

c-MET = molecular target: T6, c-MET (Homo sapiens, UniProt P08581); details: read-out: % Enzyme Activity (Relative to DMSO Controls) c-MET
T6 construct: purchased Reaction Biology Corp. (HotSpot kinase assay)
Protocol: as §1

Aurora A = molecular target: T7, Aurora A (Homo sapiens, UniProt O14965); details: read-out: % Enzyme Activity (Relative to DMSO Controls) Aurora A
T7 construct: purchased Reaction Biology Corp. (HotSpot kinase assay)
Protocol: as §1

FLT3 (ITD)-F691L = FLT3 (ITD)-F691L (Homo sapiens, UniProt P36888, F691L/ITD); details: Table 5 kinase profiling
Protocol: as §1

BRAF = molecular target: T8, BRAF (Homo sapiens, UniProt P15056); details: read-out: % Enzyme Activity (Relative to DMSO Controls) BRAF
T8 construct: purchased Reaction Biology Corp. (HotSpot kinase assay)
Protocol: as §1

CDK1/cyclin B = molecular target: T9, CDK1/cyclin B (Homo sapiens, UniProt P06493)
T9 construct: purchased Reaction Biology Corp
Protocol: as §1

c-Kit = molecular target: T10, c-Kit (Homo sapiens, UniProt P10721); details: read-out: % Enzyme Activity (Relative to DMSO Controls) c-Kit
T10 construct: purchased Reaction Biology Corp. (HotSpot kinase assay)
Protocol: as §1

SYK = molecular target: T11, SYK (Homo sapiens, UniProt P43405); details: read-out: % Enzyme Activity (Relative to DMSO Controls) SYK
T11 construct: purchased Reaction Biology Corp. (Malvern PA, USA)
Protocol: as §1

ERK7/MAPK15 = molecular target: T12, ERK7/MAPK15 (Homo sapiens, UniProt Q8TD08)
T12 construct: purchased Reaction Biology Corp
Protocol: as §1

c-Src = molecular target: T13, c-Src (Homo sapiens, UniProt P12931); details: read-out: % Enzyme Activity (Relative to DMSO Controls) c-Src
T13 construct: purchased Reaction Biology Corp. (HotSpot kinase assay)
Protocol: as §1

CHK2 = molecular target: T14, CHK2 (Homo sapiens, UniProt O96017); details: read-out: % Enzyme Activity (Relative to DMSO Controls) CHK2
T14 construct: purchased Reaction Biology Corp. (HotSpot kinase assay)
Protocol: as §1

FLT3 (ITD)-NPOS = FLT3 (ITD)-NPOS (Homo sapiens, UniProt P36888, ITD)
Protocol: as §1

PDGFRa = molecular target: T15, PDGFRa (Homo sapiens, UniProt P16234); details: read-out: % Enzyme Activity (Relative to DMSO Controls) PDGFRa
T15 construct: purchased Reaction Biology Corp. (Malvern PA, USA)
Protocol: as §1

AKT1 = molecular target: T16, AKT1 (Homo sapiens, UniProt P31749); details: read-out: % Enzyme Activity (Relative to DMSO Controls) AKT1
T16 construct: purchased Reaction Biology Corp. (HotSpot kinase assay)
Protocol: as §1

FLT3 (F594_R595insR) = molecular target: T17, FLT3 (F594_R595insR) (Homo sapiens, UniProt P36888, INS594R)
T17 construct: purchased Reaction Biology Corp
Protocol: as §1

FGFR1 = molecular target: T18, FGFR1 (Homo sapiens, UniProt P11362); details: read-out: % Enzyme Activity (Relative to DMSO Controls) FGFR1
T18 construct: purchased Reaction Biology Corp. (HotSpot kinase assay)
Protocol: as §1

T2 sequence (P50750 whole entry): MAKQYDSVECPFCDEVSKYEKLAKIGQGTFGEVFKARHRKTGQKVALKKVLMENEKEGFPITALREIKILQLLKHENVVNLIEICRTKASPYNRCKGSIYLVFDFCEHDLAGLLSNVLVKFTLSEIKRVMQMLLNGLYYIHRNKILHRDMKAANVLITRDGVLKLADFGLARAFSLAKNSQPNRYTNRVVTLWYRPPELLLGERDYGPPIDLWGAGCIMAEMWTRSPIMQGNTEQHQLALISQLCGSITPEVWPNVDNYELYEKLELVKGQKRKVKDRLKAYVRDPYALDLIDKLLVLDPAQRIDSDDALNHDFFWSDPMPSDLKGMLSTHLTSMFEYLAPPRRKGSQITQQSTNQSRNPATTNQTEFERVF
T2 sequence (O75909 whole entry partner): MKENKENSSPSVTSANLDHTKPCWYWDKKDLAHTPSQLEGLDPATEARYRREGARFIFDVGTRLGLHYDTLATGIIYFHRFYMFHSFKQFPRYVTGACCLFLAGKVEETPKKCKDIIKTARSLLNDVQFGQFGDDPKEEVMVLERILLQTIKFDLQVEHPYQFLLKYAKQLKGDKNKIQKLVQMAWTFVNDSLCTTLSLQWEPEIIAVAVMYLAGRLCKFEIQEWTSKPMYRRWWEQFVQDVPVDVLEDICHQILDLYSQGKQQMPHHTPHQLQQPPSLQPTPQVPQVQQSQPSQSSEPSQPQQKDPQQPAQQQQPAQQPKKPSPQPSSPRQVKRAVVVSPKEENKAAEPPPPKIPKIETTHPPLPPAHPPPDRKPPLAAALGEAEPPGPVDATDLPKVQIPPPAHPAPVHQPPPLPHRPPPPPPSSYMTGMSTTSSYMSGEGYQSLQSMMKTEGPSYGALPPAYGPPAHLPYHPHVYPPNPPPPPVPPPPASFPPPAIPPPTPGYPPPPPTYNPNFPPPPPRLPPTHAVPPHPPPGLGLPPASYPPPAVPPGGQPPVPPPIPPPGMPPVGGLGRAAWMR
T3 sequence (Q00534 whole entry): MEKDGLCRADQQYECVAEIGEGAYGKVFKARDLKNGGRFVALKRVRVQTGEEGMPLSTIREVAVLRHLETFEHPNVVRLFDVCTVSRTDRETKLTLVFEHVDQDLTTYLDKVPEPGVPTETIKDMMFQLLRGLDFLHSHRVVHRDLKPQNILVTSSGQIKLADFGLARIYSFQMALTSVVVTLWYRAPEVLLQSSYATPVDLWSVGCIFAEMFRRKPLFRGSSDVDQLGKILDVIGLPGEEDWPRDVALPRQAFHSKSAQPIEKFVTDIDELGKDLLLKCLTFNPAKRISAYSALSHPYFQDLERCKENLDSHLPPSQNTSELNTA
T3 sequence (P24385 whole entry partner): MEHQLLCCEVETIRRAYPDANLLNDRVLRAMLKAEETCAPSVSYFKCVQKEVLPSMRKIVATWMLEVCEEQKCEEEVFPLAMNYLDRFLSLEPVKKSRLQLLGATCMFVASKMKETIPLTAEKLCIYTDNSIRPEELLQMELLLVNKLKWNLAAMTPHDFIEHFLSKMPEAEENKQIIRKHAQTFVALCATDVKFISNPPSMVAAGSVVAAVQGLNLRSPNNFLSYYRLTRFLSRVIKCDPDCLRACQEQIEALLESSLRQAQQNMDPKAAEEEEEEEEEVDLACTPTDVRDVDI
T17 sequence (P36888 with tags, fused parts or gaps INS594R limits assumed): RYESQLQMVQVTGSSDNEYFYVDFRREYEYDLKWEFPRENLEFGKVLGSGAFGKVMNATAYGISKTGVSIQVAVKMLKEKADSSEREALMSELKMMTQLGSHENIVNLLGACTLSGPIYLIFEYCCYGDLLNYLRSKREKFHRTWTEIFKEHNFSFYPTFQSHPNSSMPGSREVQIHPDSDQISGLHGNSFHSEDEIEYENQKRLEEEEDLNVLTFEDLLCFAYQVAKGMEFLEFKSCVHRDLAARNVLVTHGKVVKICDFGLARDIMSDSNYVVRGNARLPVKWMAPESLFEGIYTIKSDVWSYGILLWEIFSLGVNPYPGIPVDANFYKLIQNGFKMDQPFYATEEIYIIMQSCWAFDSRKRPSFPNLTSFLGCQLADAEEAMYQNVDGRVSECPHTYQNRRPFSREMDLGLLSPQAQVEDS
Chain of FLT3 (ITD)-NPOS (P36888 564-993, change not shown): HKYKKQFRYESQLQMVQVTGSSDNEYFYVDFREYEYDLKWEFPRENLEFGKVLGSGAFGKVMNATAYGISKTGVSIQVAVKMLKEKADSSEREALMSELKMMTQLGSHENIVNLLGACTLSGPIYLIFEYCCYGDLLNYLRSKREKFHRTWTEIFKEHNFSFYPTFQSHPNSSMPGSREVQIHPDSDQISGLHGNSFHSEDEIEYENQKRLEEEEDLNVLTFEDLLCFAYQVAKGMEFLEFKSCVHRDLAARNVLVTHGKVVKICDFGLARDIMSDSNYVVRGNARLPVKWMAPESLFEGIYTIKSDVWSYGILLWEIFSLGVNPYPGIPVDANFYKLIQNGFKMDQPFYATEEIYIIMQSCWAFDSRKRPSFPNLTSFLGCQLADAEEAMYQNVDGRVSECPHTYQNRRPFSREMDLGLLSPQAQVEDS
T9 sequence (P06493 whole entry): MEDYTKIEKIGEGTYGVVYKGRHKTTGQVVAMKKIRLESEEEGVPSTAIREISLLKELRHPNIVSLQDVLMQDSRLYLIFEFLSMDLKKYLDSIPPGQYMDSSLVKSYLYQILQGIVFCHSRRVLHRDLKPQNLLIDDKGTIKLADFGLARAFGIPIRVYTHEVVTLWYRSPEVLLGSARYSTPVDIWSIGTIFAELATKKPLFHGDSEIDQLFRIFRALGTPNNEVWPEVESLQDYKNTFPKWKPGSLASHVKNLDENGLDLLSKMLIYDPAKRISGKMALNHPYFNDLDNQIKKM
T9 sequence (P14635 whole entry partner): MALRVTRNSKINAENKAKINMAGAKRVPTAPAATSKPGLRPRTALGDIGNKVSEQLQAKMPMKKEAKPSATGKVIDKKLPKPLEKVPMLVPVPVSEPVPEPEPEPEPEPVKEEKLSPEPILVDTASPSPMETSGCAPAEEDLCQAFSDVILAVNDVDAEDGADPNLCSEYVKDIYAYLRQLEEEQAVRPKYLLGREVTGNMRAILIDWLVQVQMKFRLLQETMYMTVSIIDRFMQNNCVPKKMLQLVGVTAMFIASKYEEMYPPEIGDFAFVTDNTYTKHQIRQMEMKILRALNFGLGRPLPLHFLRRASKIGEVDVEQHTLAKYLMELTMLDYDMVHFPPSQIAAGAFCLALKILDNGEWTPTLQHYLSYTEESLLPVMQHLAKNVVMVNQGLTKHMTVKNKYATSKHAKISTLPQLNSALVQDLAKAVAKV
T12 sequence (Q8TD08 whole entry): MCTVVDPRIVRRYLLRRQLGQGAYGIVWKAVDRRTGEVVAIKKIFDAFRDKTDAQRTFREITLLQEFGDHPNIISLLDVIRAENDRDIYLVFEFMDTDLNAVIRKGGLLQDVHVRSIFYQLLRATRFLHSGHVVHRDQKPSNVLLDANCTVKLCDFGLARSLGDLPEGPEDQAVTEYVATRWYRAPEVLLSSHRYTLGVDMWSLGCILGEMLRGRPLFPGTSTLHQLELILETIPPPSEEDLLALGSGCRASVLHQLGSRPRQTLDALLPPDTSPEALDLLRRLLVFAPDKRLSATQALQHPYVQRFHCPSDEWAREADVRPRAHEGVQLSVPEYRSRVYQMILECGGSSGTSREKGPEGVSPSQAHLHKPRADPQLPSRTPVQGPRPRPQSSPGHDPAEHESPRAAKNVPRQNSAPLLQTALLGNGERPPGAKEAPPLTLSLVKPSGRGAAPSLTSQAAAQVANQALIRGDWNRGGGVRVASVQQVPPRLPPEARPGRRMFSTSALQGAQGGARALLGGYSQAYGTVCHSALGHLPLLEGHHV
Chain of FLT3 (ITD)-F691L (P36888 564-993 F691L): as the sequence (P36888 564-993, change not shown) above, with F128L counted along it
T4 sequence (O60674 whole entry): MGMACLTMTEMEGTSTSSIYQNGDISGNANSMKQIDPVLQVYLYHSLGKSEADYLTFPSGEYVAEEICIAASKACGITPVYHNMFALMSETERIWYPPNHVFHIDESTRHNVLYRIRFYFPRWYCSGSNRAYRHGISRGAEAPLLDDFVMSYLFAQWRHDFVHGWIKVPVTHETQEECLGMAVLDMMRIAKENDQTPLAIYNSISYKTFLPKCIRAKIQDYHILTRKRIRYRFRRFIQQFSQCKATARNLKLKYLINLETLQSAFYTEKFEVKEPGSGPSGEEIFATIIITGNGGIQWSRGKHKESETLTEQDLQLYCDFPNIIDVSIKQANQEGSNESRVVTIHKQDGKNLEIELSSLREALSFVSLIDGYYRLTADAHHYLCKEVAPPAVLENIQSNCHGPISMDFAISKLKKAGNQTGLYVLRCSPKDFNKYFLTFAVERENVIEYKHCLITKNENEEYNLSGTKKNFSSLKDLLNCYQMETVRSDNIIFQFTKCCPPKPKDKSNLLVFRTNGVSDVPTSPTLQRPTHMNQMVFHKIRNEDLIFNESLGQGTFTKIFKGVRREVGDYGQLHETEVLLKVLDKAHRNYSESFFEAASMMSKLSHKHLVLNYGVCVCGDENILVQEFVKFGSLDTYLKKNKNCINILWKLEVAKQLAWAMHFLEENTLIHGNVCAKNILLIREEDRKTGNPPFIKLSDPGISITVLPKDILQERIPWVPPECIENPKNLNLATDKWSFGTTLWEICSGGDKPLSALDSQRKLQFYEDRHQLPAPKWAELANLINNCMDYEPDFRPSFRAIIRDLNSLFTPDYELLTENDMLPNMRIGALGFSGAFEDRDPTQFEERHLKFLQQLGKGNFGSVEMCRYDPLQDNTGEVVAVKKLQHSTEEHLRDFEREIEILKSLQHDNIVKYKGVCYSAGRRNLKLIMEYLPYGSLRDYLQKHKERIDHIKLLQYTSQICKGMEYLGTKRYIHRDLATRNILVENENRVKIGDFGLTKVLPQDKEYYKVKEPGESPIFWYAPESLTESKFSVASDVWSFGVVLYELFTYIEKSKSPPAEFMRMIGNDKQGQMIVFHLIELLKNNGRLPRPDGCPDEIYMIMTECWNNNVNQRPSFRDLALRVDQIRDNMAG

remaining activity at 0.15 µM (BTK): 97.1%
remaining activity at 0.15 µM (CDK9/cyclin K; 0.15 μM, read-out: % Enzyme Activity (Relative to DMSO Controls) CDK9/cyclin K): 7.2%
IC50 (CDK9/cyclin K; Table 5 kinase profiling): 14.2 ± 0.82 nM
remaining activity at 0.15 µM (CDK6/cyclin D1; 0.15 μM, read-out: % Enzyme Activity (Relative to DMSO Controls) CDK6/cyclin D1): 1.33%
IC50 (CDK6/cyclin D1; Table 5 kinase profiling): 0.59 ± 0.09 nM
remaining activity at 0.15 µM (JAK2): 32%
remaining activity at 0.15 µM (CDK2/cyclin A; 0.15 μM, read-out: % Enzyme Activity (Relative to DMSO Controls) CDK2/cyclin A): 4.01%
IC50 (CDK2/cyclin A; Table 5 kinase profiling): 2.56 ± 0.31 nM
remaining activity at 0.15 µM (c-MET): 99%
remaining activity at 0.15 µM (Aurora A): 38%
IC50 (FLT3 (ITD)-F691L): 0.6 ± 0.01 nM
remaining activity at 0.15 µM (BRAF): 77.6%
remaining activity at 0.15 µM (CDK1/cyclin B; 0.15 μM, read-out: % Enzyme Activity (Relative to DMSO Controls) CDK1/cyclin B): 18.2%
IC50 (CDK1/cyclin B; Table 5 kinase profiling): 138 ± 1.24 nM
remaining activity at 0.15 µM (c-Kit): 64.8%
remaining activity at 0.15 µM (SYK): 35.4%
remaining activity at 0.15 µM (c-Src): 73.8%
remaining activity at 0.15 µM (CHK2): 38.4%
remaining activity at 0.15 µM (FLT3 (ITD)-NPOS; 0.15 μM, read-out: % Enzyme Activity (Relative to DMSO Controls) FLT3 (ITD)-NPOS): 1.38%
IC50 (FLT3 (ITD)-NPOS; Table 5 kinase profiling): 4.32 ± 0.23 nM
remaining activity at 0.15 µM (PDGFRa): 82.8%
remaining activity at 0.15 µM (AKT1): 122%
remaining activity at 0.15 µM (FLT3 (F594_R595insR); 0.15 μM, read-out: % Enzyme Activity (Relative to DMSO Controls) FLT3 (F594_R595insR)): 0.47%
IC50 (FLT3 (F594_R595insR); Table 5 kinase profiling): 0.63 ± 0.09 nM
remaining activity at 0.15 µM (FGFR1): 40%
SMILES: O=C(Nc1ccc(N2CCNCC2)cc1)c1n[nH]cc1Nc1ncnc2sc3c(c12)CCC3 [Compound 8t]
remaining activity at 0.15 µM (ERK7/MAPK15; 0.15 μM, read-out: % Enzyme Activity (Relative to DMSO Controls) ERK7/MAPK15): 2.96%
IC50 (ERK7/MAPK15; Table 5 kinase profiling): 9.57 ± 0.23 nM
